Laboratory results: patent US7932387B2, “Crystalline forms of rosuvastatin calcium salt” (BASF SE, priority 2005, dated 2011)
Where a name gives a salt, the structure may show the parent alone.

Legend:
[1] = Chemical and physical stability (comparison of solid forms); assay type: physicochemical; conditions: compared with the amorphous form; qualitative statement
[2] = Solubility in water and in physiological liquids (comparison of solid forms); assay type: physicochemical; conditions: compared with form A; qualitative statement

For `CC(C)c1nc(N(C)S(C)(=O)=O)nc(-c2ccc(F)cc2)c1/C=C/[C@@H](O)C[C@@H](O)CC(=O)O` [Form B, bis[(E)-7-[4-(4-fluorophenyl)-6-isopropyl-2-[methyl(methylsulfonyl)amino]pyrimidin-5-yl](3R,5S)-3,5-dihydroxyhept-6-enoic acid] calcium salt], the “chemical and physical stability” value [1] was “chemically and physically more stable than the amorphous form” and the “solubility in water and in physiological liquids” value [2] was “better soluble in water and in physiological liquids than form A”.
